Test results as given in the NIST ThermoML archive (doi:10.1016/j.jct.2003.12.012).

Assays:
[1] = molar heat capacity at saturation pressure
[2] = Molar enthalpy of transition or fusion; settings: Crystal; Adiabatic calorimetry
[3] = for mass density / vapor or sublimation pressure: Liquid; for mass density: Vibrating tube method

c1ccc2c3c(sc2c1)CCCC3 [1,2,3,4-tetrahydrodibenzothiophene]
molar heat capacity [J/K/mol], [1]
Settings | Crystal | Liquid
4.929 K, Vacuum adiabatic calorimetry | 0.32 | –
5 K, Vacuum adiabatic calorimetry | 0.33 | –
5.867 K, Vacuum adiabatic calorimetry | 0.56 | –
6.798 K, Vacuum adiabatic calorimetry | 0.931 | –
7.734 K, Vacuum adiabatic calorimetry | 1.41 | –
8.759 K, Vacuum adiabatic calorimetry | 2.08 | –
9.819 K, Vacuum adiabatic calorimetry | 2.94 | –
10 K, Vacuum adiabatic calorimetry | 3.08 | –
10.94 K, Vacuum adiabatic calorimetry | 3.96 | –
12.2 K, Vacuum adiabatic calorimetry | 5.23 | –
13.6 K, Vacuum adiabatic calorimetry | 6.8 | –
15.14 K, Vacuum adiabatic calorimetry | 8.647 | –
16.83 K, Vacuum adiabatic calorimetry | 10.74 | –
18.67 K, Vacuum adiabatic calorimetry | 13.06 | –
20 K, Vacuum adiabatic calorimetry | 14.74 | –
20.68 K, Vacuum adiabatic calorimetry | 15.6 | –
22.91 K, Vacuum adiabatic calorimetry | 18.38 | –
25.4 K, Vacuum adiabatic calorimetry | 21.41 | –
28.17 K, Vacuum adiabatic calorimetry | 24.67 | –
30 K, Vacuum adiabatic calorimetry | 26.76 | –
31.26 K, Vacuum adiabatic calorimetry | 28.16 | –
34.71 K, Vacuum adiabatic calorimetry | 31.86 | –
38.53 K, Vacuum adiabatic calorimetry | 35.74 | –
40 K, Vacuum adiabatic calorimetry | 37.17 | –
42.79 K, Vacuum adiabatic calorimetry | 39.83 | –
47.54 K, Vacuum adiabatic calorimetry | 44.15 | –
50 K, Vacuum adiabatic calorimetry | 46.29 | –
52.85 K, Vacuum adiabatic calorimetry | 48.69 | –
58.73 K, Vacuum adiabatic calorimetry | 53.4 | –
59.8 K, Vacuum adiabatic calorimetry | 54.26 | –
60 K, Vacuum adiabatic calorimetry | 54.39 | –
65.16 K, Vacuum adiabatic calorimetry | 58.28 | –
65.33 K, Vacuum adiabatic calorimetry | 58.42 | –
70 K, Vacuum adiabatic calorimetry | 61.88 | –
71.56 K, Vacuum adiabatic calorimetry | 63.02 | –
78.46 K, Vacuum adiabatic calorimetry | 67.87 | –
80 K, Vacuum adiabatic calorimetry | 68.94 | –
85.75 K, Vacuum adiabatic calorimetry | 72.84 | –
90 K, Vacuum adiabatic calorimetry | 75.67 | –
90.98 K, Vacuum adiabatic calorimetry | 76.33 | –
93.89 K, Vacuum adiabatic calorimetry | 78.25 | –
99.3 K, Vacuum adiabatic calorimetry | 81.84 | –
100 K, Vacuum adiabatic calorimetry | 82.3 | –
108.29 K, Vacuum adiabatic calorimetry | 87.72 | –
117.93 K, Vacuum adiabatic calorimetry | 93.99 | –
120 K, Vacuum adiabatic calorimetry | 95.28 | –
127.8 K, Vacuum adiabatic calorimetry | 100.49 | –
138.76 K, Vacuum adiabatic calorimetry | 107.84 | –
140 K, Vacuum adiabatic calorimetry | 108.6 | –
150.73 K, Vacuum adiabatic calorimetry | 116.11 | –
160 K, Vacuum adiabatic calorimetry | 122.46 | –
162.76 K, Vacuum adiabatic calorimetry | 124.52 | –
174.79 K, Vacuum adiabatic calorimetry | 133.17 | –
180 K, Vacuum adiabatic calorimetry | 136.76 | –
186.82 K, Vacuum adiabatic calorimetry | 141.95 | –
198.84 K, Vacuum adiabatic calorimetry | 151.12 | –
199.7 K, Vacuum adiabatic calorimetry | 151.8 | –
200 K, Vacuum adiabatic calorimetry | 151.75 | –
210.84 K, Vacuum adiabatic calorimetry | 160.54 | –
212.28 K, Vacuum adiabatic calorimetry | 161.67 | –
220 K, Vacuum adiabatic calorimetry | 167.35 | –
222.84 K, Vacuum adiabatic calorimetry | 170.12 | –
225.76 K, Vacuum adiabatic calorimetry | 172.63 | –
232.14 K, Vacuum adiabatic calorimetry | 177.99 | –
234.83 K, Vacuum adiabatic calorimetry | 180.25 | –
238.71 K, Vacuum adiabatic calorimetry | 183.61 | –
240 K, Vacuum adiabatic calorimetry | 183.48 | –
247.47 K, Vacuum adiabatic calorimetry | 192.11 | –
249.42 K, Vacuum adiabatic calorimetry | 193.97 | –
251.32 K, Vacuum adiabatic calorimetry | 196.13 | –
260 K, Vacuum adiabatic calorimetry | 200.99 | –
262.17 K, Vacuum adiabatic calorimetry | 216.81 | –
263.64 K, Vacuum adiabatic calorimetry | 221.51 | –
263.71 K, Vacuum adiabatic calorimetry | 222.9 | –
275.03 K, Vacuum adiabatic calorimetry | 216.13 | 256.66
280 K, Vacuum adiabatic calorimetry | – | 259.07
282.32 K, Vacuum adiabatic calorimetry | – | 260.24
283.78 K, Vacuum adiabatic calorimetry | – | 260.98
287.63 K, Vacuum adiabatic calorimetry | – | 262.81
291.46 K, Vacuum adiabatic calorimetry | – | 264.72
298.15 K, Vacuum adiabatic calorimetry | – | 268.09
300 K, Vacuum adiabatic calorimetry | – | 269.02
300.54 K, Vacuum adiabatic calorimetry | – | 269.29
301.1 K, Vacuum adiabatic calorimetry | – | 269.61
315.41 K, Vacuum adiabatic calorimetry | – | 277.04
320 K, Vacuum adiabatic calorimetry | – | 279.47
330.79 K, Vacuum adiabatic calorimetry | – | 285.2
340 K, Vacuum adiabatic calorimetry | – | 290.16
343.22 K, Vacuum adiabatic calorimetry | – | 291.9
359.69 K, Vacuum adiabatic calorimetry | – | 300.83
360 K, Vacuum adiabatic calorimetry | – | 301
376.04 K, Vacuum adiabatic calorimetry | – | 309.7
380 K, Vacuum adiabatic calorimetry | – | 311.85
392 K, Vacuum adiabatic calorimetry | – | 318.35
400 K, Vacuum adiabatic calorimetry | – | 322.67
408.31 K, Vacuum adiabatic calorimetry | – | 327.12
420 K, Vacuum adiabatic calorimetry | – | 333.33
424.94 K, Vacuum adiabatic calorimetry | – | 335.95
437.47 K, Vacuum adiabatic calorimetry | – | 342.54
440 K, Small sample (50 mg) DSC | – | 344.04
460 K, Small sample (50 mg) DSC | – | 355.38
480 K, Small sample (50 mg) DSC | – | 366.09
500 K, Small sample (50 mg) DSC | – | 376.9
520 K, Small sample (50 mg) DSC | – | 387.66
540 K, Small sample (50 mg) DSC | – | 398.39
560 K, Small sample (50 mg) DSC | – | 409.11
580 K, Small sample (50 mg) DSC | – | 419.8
600 K, Small sample (50 mg) DSC | – | 430.43

Settings | Molar enthalpy of transition or fusion [kcal/mol]
[2] | 3.348

[3]
Settings | mass density [kg/m3]
323.14 K | 1125.7
348.13 K | 1105.2
373.12 K | 1086
423.11 K | 1046.8
448.11 K | 1028.1

[3]
Settings | Triple point temperature [K] | vapor or sublimation pressure [kPa]
359.98 K, Inclined piston gauge | – | 0.0221
369.98 K, Inclined piston gauge | – | 0.0414
379.97 K, Inclined piston gauge | – | 0.0746
389.97 K, Inclined piston gauge | – | 0.1296
400.17 K, Inclined piston gauge | – | 0.2209
409.96 K, Inclined piston gauge | – | 0.3567
419.97 K, Inclined piston gauge | – | 0.5674
429.96 K, Inclined piston gauge | – | 0.8785
439.96 K, Inclined piston gauge | – | 1.328
449.96 K, Inclined piston gauge | – | 1.962
450.48 K, Ebulliometric method (Recirculating still) | – | 2.002
454.96 K, Inclined piston gauge | – | 2.368
459.96 K, Inclined piston gauge | – | 2.842
469.6 K, Ebulliometric method (Recirculating still) | – | 3.993
478.25 K, Ebulliometric method (Recirculating still) | – | 5.331
491.02 K, Ebulliometric method (Recirculating still) | – | 8
500.6 K, Ebulliometric method (Recirculating still) | – | 10.67
508.29 K, Ebulliometric method (Recirculating still) | – | 13.32
516.36 K, Ebulliometric method (Recirculating still) | – | 16.66
523.05 K, Ebulliometric method (Recirculating still) | – | 19.94
531.82 K, Ebulliometric method (Recirculating still) | – | 25.02
540.67 K, Ebulliometric method (Recirculating still) | – | 31.18
549.55 K, Ebulliometric method (Recirculating still) | – | 38.56
558.49 K, Ebulliometric method (Recirculating still) | – | 47.38
567.47 K, Ebulliometric method (Recirculating still) | – | 57.8
576.48 K, Ebulliometric method (Recirculating still) | – | 70.09
585.54 K, Ebulliometric method (Recirculating still) | – | 84.5
594.67 K, Ebulliometric method (Recirculating still) | – | 101.29
603.84 K, Ebulliometric method (Recirculating still) | – | 120.72
Crystal, Adiabatic calorimetry | 275.03 | –
